According to US12600732B2, “Bifunctional compounds for degrading BTK via ubiquitin proteosome pathway” (NURIX THERAPEUTICS, INC., priority 2019, dated 2026):
Values joined by “and” are separate entries in the source; they are usually repeats but may differ in a detail not shown here. Identical values can stand only once. Like-named read-outs stand apart in the source and are kept apart here.

How the values were obtained:
[1] = PK data for BTK CTMs (in vivo plasma concentrations); settings: for Vd: read-out: Volume of Distribution
Excerpt: The present example evaluates in vivo plasma concentrations of BTK CTMs to develop PK-PD-efficacy relationship and predict human exposure.

[2] = tested on: primary human T cells; experiment: T cell activation assay, CD25 and CD69 staining (flow cytometry); format: cell-based; settings: fold-change of response relative to baseline
Protocol: (§1) This example evaluates whether CTMs with IMiD activity affect T cell activation. […] These assays were performed to assess whether BTK CTMs with and without IMiD activity affected activation of primary human T cells after stimulation of the T cell receptor with anti-CD3/ati-CD28 stimulation. T cell activation was measured by IL-2 secretion (ELISA assay) and upregulation of activation markers CD25 and CD69 on the surface of T cells (flow cytometry). Data are presented as the fold-change of response relative to baseline (stimulation with anti-CD3/anti-CD28 stimulation in the absence of compound).

[3] = tested on: TMD8 cells; experiment: Cell viability assay (CellTiter-Glo), TMD8 cells; settings: for EC50: Homo sapiens, TMD8, 72 h; for EMAX (% viable cells): TMD8 cells, treatment time 72 h
[4] = tested on: TMD8 C481S cells; experiment: Cell viability assay (CellTiter-Glo), TMD8 C481S cells; settings: for EC50: Homo sapiens, TMD8, 72 h; for EMAX (% viable cells): TMD8 C481S cells, treatment time 72 h
[5] = target: T1, BTK (Mus musculus, UniProt P35991); experiment: In vivo degradation of BTK in mouse PD experiments with oral dosing
T1 construct: from tissue; host or cells: mouse blood B cells / splenocytes (CD-1 or BALB/c)
Summary of the method: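 BTK in blood or splenocytes read by flow cytometry (or HTRF), degradation taken as B-cell minus T-cell BTK MFI versus vehicle. Mice (CD-1 or BALB/c) received compound orally, initially 90 mg/kg for 6 h, then lower doses and longer time points.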

[6] = tested on: primary human T cells; experiment: T cell activation assay, IL-2 secretion (ELISA); format: cell-based
Protocol: as §1

[7] = tested on: TMD8 tumor cells; experiment: TMD8 xenograft efficacy study (wild-type BTK); format: in vivo, mouse; settings: TMD8 WT, QD
Protocol: […] Tumor growth inhibition (% TGI) were calculated on the final day of measurement using the equation [1−(T−T0/C−T0)]×100, where T and C represent the mean size of tumors in the treated (T) and control (C) groups, and T0 refers to the tumor size at randomization.
(§2) This example examines the activity of various BTK CTMs in relevant disease models, including the WT and C481S TMD8 model, which models B cell malignancies with/without inhibitor-driven BTK mutations at C481.

[8] = target: BTK (Homo sapiens, UniProt Q06187); experiment: BTK remaining in TMD8 WT mouse xenograft study; format: in vivo; set-up: from tissue; host or cells: TMD8 xenograft in CB.17 SCID mice; settings: QD
Excerpt: Efficacy in Mouse Xenograft Models
as §2

[9] = target: BTK C481S (Homo sapiens, UniProt Q06187, C481S); experiment: BTK degradation (Total BTK HTRF) in TMD8 cells expressing BTK-C481S; format: cell-based; set-up: endogenous in cells; host or cells: TMD8 BTK-C481S (clone2C3), Cas9 RNP knock-in; settings: TMD8 BTK-C481S (clone2C3) cells, treatment time 4 h
Protocol: BTK levels were determined using Cisbio Total-BTK HTRF (Homologous Time-Resolved Fluorescence) kit (63ADK064PEG) according to the manufacturer's protocol. Briefly, cells were incubated in 1× supplied lysis buffer for 30 minutes. In an opaque white low volume 96-well plate (Cisbio, 66PL96005), cell lysate was combined with two different specific BTK antibodies, one conjugated with Eu^3+-Cryptate FRET donor and one conjugated with d2 FRET acceptor. Assay controls include wells containing cell lysate with only the Eu^3+-Cryptate FRET donor antibody and wells containing both HTRF antibodies and lysis buffer without cells or control lysate provided by Cisbio. HTRF ratio was calculated as (acceptor signal at 665 nm/donor signal at 620 nm)×10^4. Background HTRF levels were determined from the control well containing the donor, but no acceptor, antibody. Background HTRF levels were subtracted from all samples. Readouts were reported as HTRF levels relative to HTRF levels of DMSO-treated cells. Four-parameter non-linear regressions were performed in GraphPad Prism 7.02 to obtain DC50 values.
BTK Degradation (Total BTK HTRF) at Four Hours in TMD8 Cells Expressing BTK-C481S
This example evaluates the potency of CTM in degrading […]. The BTK binding moieties utilized in CTMs bind to the BTK active site. This example evaluates whether the active site mutation C481S affects CTM-induced degradation of BTK.

[10] = tested on: B cell receptor (BCR) signaling; experiment: B cell activation assay (flow cytometry), mouse B cells; format: cell-based; settings: treatment 4 h, IgM stimulation 18 h
Protocol: Compound was present throughout the stimulation. Cells were stained with Live/Dead dye (Fisher L34976) and then fluorophore-conjugated antibodies against CD20 (Biolegend 302330), CD3 (BD Pharmingen 557705), CD86 (Biolegend 305416) and CD69 (Biolegend 310906). Stained cells were fixed in PFA and run on an Attune N×T Acoustic Focusing Flow Cytometer (Thermo-Fisher A29004), and data was analyzed using FlowJo (v10.5.3) and GraphPad Prism (v7.00) software. Single live lymphocytes were gated for B cells (CD20+CD3−) and T cells (CD3+CD20−), and the geometric mean fluorescence intensity (MFI) of CD86 and CD69 was calculated for each population. The MFI of the unstimulated sample was used to quantify baseline activation.
This example evaluates whether CTM treatment affects B cell receptor (BCR) signaling. BTK is activated downstream of the B cell receptor and leads to upregulation of activation markers CD86 and CD69 on the surface of B cells.

[11] = tested on: Rec-1 cells; experiment: Cell viability assay (CellTiter-Glo), Rec-1 cells; format: cell-based
Excerpt: (§3) This example evaluates effects of CTM-mediated degradation on cell viability. […] Mino and Rec-1 are models of Mantle Cell Lymphoma, which is sensitive to IMiDs.

[12] = tested on: Mino cells; experiment: Cell viability assay (CellTiter-Glo), Mino cells; format: cell-based; settings: Mino cells, treatment time 72 h
Excerpt: as §3

[13] = Rat Sprague-Dawley, 10 mg/kg PO
[14] = oral dose 3 mg/kg, 6 h, blood, flow cytometry
[15] = oral dose 3 mg/kg, 24 h, blood, flow cytometry
[16] = 1.4 nM, fold-change of response relative to baseline
[17] = 37 nM, fold-change of response relative to baseline
[18] = 333 nM, fold-change of response relative to baseline (stimulation without compound)
[19] = PO, 30 mg/kg, 21 days of dosing
[20] = IP, 10 mg/kg, 14 days of dosing
[21] = IP, 30 mg/kg, 14 days of dosing
[22] = IP, 30 mg/kg, 21 days of dosing

AUC ([1]; Mouse Balb/c, 1 mg/kg IV) [µM·h]	clearance ([1]; Mouse Balb/c, 1 mg/kg IV) [mL/min/kg]	Vd ([1]; Mouse Balb/c, 1 mg/kg IV) [L/kg]	AUC ([1]; Mouse Balb/c, 30 mg/kg PO) [µM·h]	bioavailability ([1]; Mouse Balb/c, 30 mg/kg PO) [%]	% BTK Remaining [5, 15] [%]	Structure (SMILES)	CD25 Staining Anti-CD3/Anti-CD28 Stimulation ([2]; 1.4 nM)	CD69 Staining Anti-CD3/Anti-CD28 Stimulation ([2]; 1.4 nM)	CD25 Staining Anti-CD3/Anti-CD28 Stimulation ([2]; 37 nM)	CD69 Staining Anti-CD3/Anti-CD28 Stimulation ([2]; 37 nM)	CD25 Staining Anti-CD3/Anti-CD28 Stimulation ([2]; 333 nM)	CD69 Staining Anti-CD3/Anti-CD28 Stimulation ([2]; 333 nM)	EC50 [3] [nM]	EMAX (% viable cells) [3] [%]	EC50 [4] [nM]	EMAX (% viable cells) [4] [%]	IL-2 Secretion Anti-CD3/Anti-CD28 Stimulation [6, 16]	IL-2 Secretion Anti-CD3/Anti-CD28 Stimulation [6, 17]	IL-2 Secretion Anti-CD3/Anti-CD28 Stimulation [6, 18]	Tumor Growth Inhibition (relative to vehicle) [7, 19] [%]	other results
2.75	7.5	0.88	96	113	56	CN1CCN([C@@H]2CCCN(c3cnc(C(N)=O)c(Nc4ccc(C5CCN(C6CN(c7ccc8c(c7)C(=O)N(C7CCC(=O)NC7=O)C8=O)C6)CC5)cc4)n3)C2)C1=O (some centres unmarked) [Compound 53]	1.09	1.06	1.14	1.07	0.84	0.83	2.24	16	16.1	24	1.22	2.08	2.53	27	AUC ([1]; Rat Sprague-Dawley, 1 mg/kg IV): 0.31 µM·h; clearance ([1]; Rat Sprague-Dawley, 1 mg/kg IV): 75 mL/min/kg; Vd ([1]; Rat Sprague-Dawley, 1 mg/kg IV): 5.9 L/kg; AUC [1, 13]: 2.3 µM·h; bioavailability [1, 13]: 97%; % BTK Remaining [5, 14]: 35%; BTK Remaining (% relative to vehicle) [8, 19]: 19%; DC50 [9]: 8 nM
0.29	68.3	4	0.81	9	63	CN1CCN([C@H]2CCCN(c3cnc(C(N)=O)c(Nc4cnn(C5CCN(CC6CCN(c7ccc8c(c7)C(=O)N(C7CCC(=O)NC7=O)C8=O)CC6)CC5)c4)n3)C2)C1=O (some centres unmarked) [Compound 83]	–	–	–	–	–	–	1.66	38	4.32	52	–	–	–	39	EC50 ([10]; read-out: CD69 EC50): 0.08 nM; EC50 ([10]; read-out: CD86 EC50): 0.1 nM; % BTK Remaining [5, 14]: 48%; BTK Remaining (% relative to vehicle) [8, 19]: 22%; DC50 [9]: 2.7 nM
8.64	2.4	0.48	74.3	29	55	CN1CCN([C@@H]2CCCN(c3cnc(C(N)=O)c(Nc4ccc(N5CCC6(CC5)CCN(c5ccc7c(c5)C(=O)N(C5CCC(=O)NC5=O)C7=O)CC6)cc4)n3)C2)C1=O (some centres unmarked) [Compound 55]	–	–	–	–	–	–	2.4	15	16.8	19	–	–	–	17	% BTK Remaining ([5]; oral dose 0.3 mg/kg, 24 h, blood, flow cytometry): 83%; % BTK Remaining ([5]; oral dose 0.3 mg/kg, 24 h, splenocytes, flow cytometry): 114%; % BTK Remaining ([5]; oral dose 1 mg/kg, 6 h, splenocytes, HTRF, 1 mg/kg): 80% and 66%; % BTK Remaining ([5]; oral dose 3 mg/kg, 6 h, splenocytes, HTRF): 18%; % BTK Remaining ([5]; oral dose 3 mg/kg, 24 h, splenocytes, flow cytometry): 72%; % BTK Remaining ([5]; oral dose 10 mg/kg, 24 h, blood, flow cytometry): 47%; % BTK Remaining ([5]; oral dose 10 mg/kg, 24 h, splenocytes, flow cytometry): 45%; % BTK Remaining ([5]; oral dose 30 mg/kg, 24 h, blood, flow cytometry): 39%; % BTK Remaining ([5]; oral dose 30 mg/kg, 24 h, splenocytes, flow cytometry): 36%; % BTK Remaining ([5]; oral dose 90 mg/kg, 24 h, blood, flow cytometry): 23%; % BTK Remaining ([5]; oral dose 90 mg/kg, 24 h, splenocytes, flow cytometry): 48%; BTK Remaining (% relative to vehicle) [8, 19]: 27%; DC50 [9]: 5.8 nM
–	–	–	–	–	–	C=CC(=O)N1CCC[C@@H](n2nc(-c3ccc(Oc4ccccc4)cc3)c3c(N)ncnc32)C1 [Ibrutinib, reference compound]	0.92	0.89	0.74	0.74	0.22	0.22	3	16	1040	46	0.84	0.85	0.34	–	EC50 ([11]; Homo sapiens, Rec1, treatment time 72 h): 268 nM; EMAX (% viable cells) ([11]; treatment time 72 h): 68%; EC50 ([12]; Homo sapiens): 498 nM; EMAX (% viable cells) [12]: 79%
–	–	–	–	–	–	CN1CCN([C@@H]2CCCN(c3cnc(C(N)=O)c(Nc4ccc(N5CCN(CCCCc6cccc7c6CN(C6CCC(=O)NC6=O)C7=O)CC5)cc4)n3)C2)C1=O (some centres unmarked) [Compound 17]	1.06	1.05	1.34	1.23	1.11	1.12	0.6	7	3.71	15	1.59	3.14	2.92	–	Tumor Growth Inhibition (relative to vehicle) [7, 20]: 14%; Tumor Growth Inhibition (relative to vehicle) [7, 21]: 66%; Tumor Growth Inhibition (relative to vehicle) [7, 22]: 81%; BTK Remaining (% relative to vehicle) [8, 20]: 20%; BTK Remaining (% relative to vehicle) [8, 21]: 15%; BTK Remaining (% relative to vehicle) [8, 22]: 7%
